One molecule from patent US9321722B2, “Bis-indolic derivatives, their uses in particular as antibacterials” (UNIVERSITE JOSEPH FOURIER, priority 2011, dated 2016) can be followed below.

For assay [1], the system named is Listeria innocua CIP 80.11. The assay is described as follows: MIC microdilution (Table I-1). Format: cell-based. Conditions: CIP80, read after 18 hours, read-out: MIC. An outline of the steps: (§1)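 CLSI broth microdilution in Mueller Hinton broth, final inoculum 5×10^5 CFU/ml. Compounds tested as two-fold serial dilutions, 0.50–128 mg/L final, plates incubated at 37 °C in ambient air; MIC read as lowest concentration inhibiting growth.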
On the technique in general: Dilution methods test growth across graded concentrations, often in twofold steps.

Assay [2] concerns S. agalactiae (group B) ATCC 12400. Nature of the assay: MIC microdilution (Table I-1). Format: cell-based. To be noted: Streptococcus agalactiae, ATCC12400, read after 18 hours, read-out: MIC. A digest of the protocol: as §1
Assay [3] relates to Serratia marcescens CIP 103551. Nature of the assay: MIC microdilution (Table I-1). Format: cell-based. To be noted: CIP103551, read after 18 hours. An outline of the steps:
as §1

In assay [4] the test system is S. pneumoniae ATCC 49619. Nature of the assay: MIC microdilution (Table I-1). Format: cell-based. To be noted: Streptococcus pneumoniae, ATCC49619, read after 18 hours. A digest of the protocol: as §1
Assay [5] deals with MRC5 (human lung fibroblast). The assay is described as follows: In vitro cytotoxicity. Format: cell-based. Here is the method:
(§2) In vitro cytotoxicity was assayed on three cell lines—KB (human mouth carcinoma), MCR5 (human lung fibroblast) and HCT116 (human colon tumor). Results are presented in table III as % of cellular growth inhibition in presence of 10^−5 M and 10^−6 M of the tested bis-indolic derivatives.

Assay [6] concerns HCT116 (human colon tumor). The assay is described as follows: In vitro cytotoxicity. Format: cell-based. The method, then: as §2
Assay [7] deals with KB (human mouth carcinoma). The assay is described as follows: In vitro cytotoxicity. Conditions: KB. Format: cell-based. The method, then: as §2
Assay [8] relates to Staphylococcus aureus K2378 (overexpresses the efflux pump NorA from a multicopy plasmid). The assay is described as follows: Efflux pump inhibition assay with sub-inhibitory ciprofloxacin. Format: cell-based.
Assay [9] has as its system S. epidermidis CIP 103627. Nature of the assay: MIC microdilution (Table I-1). Format: cell-based, Staphylococcus epidermidis. To be noted: Staphylococcus epidermidis, CIP103627, read after 18 hours, read-out: MIC. The method, then:
(§3) The microdilution method recommended by the Clinical and Laboratory Standard Institute [M07-A8, Vol. 29, N^o 2] was used. The activity of indolic compounds was tested against 29 bacterial strains belonging to 17 different species and 12 different genera (Staphylococcus, Streptococcus, Enterococcus, Listeria, Bacillus, Haemophilus, Escherichia, Klebsiella, Enterobacter, Serratia, Pseudomonas, and Acinetobacter). Bacterial inocula were prepared in Mueller Hinton broth (MH2, bioMerieux, Marcy L'Etoile, France), supplemented with 10% sheep blood for fastidious species (i.e., Streptococcus pneumoniae and Haemophilus influenzae). They were dispensed in 96 well microtiter plates (5×10^5 CFU/ml of final inoculum). Indolic compounds were added to the wells as to obtain two-fold serial concentrations (0.50-128 mg/L of final concentrations). Plates were incubated at 37° C. in ambient air, or at 37° C. in 5% CO2 enriched atmosphere for fastidious species. […] Drug-free cultures served as growth controls. Cultures receiving gentamicin, ciprofloxacin or cefotaxime served as positive controls.

Assay [10] concerns S. epidermidis CIP 81.55. Nature of the assay: MIC microdilution (Table I-1). Format: cell-based, Staphylococcus epidermidis. To be noted: Staphylococcus epidermidis, CIP81, read after 18 hours, read-out: MIC. Here is the method: as §3
The test system of assay [11] is S. epidermidis ATCC 12228. The assay is described as follows: MIC microdilution (Table I-1). Format: cell-based, Staphylococcus epidermidis. To be noted: Staphylococcus epidermidis, ATCC12228, read after 18 hours, read-out: MIC. The method, then:
as §3

In assay [12] the test system is S. pneumoniae ATCC 6303. The assay is described as follows: MIC microdilution (Table I-1). Format: cell-based, Streptococcus pneumoniae. To be noted: Streptococcus pneumoniae, ATCC6303, read after 18 hours, read-out: MIC. The method, then:
as §3

Molecules are shown by their SMILES.

For `CC(C)(C)OC(=O)N1CCN(C(=O)C(=O)c2c[nH]c3ccc(Br)cc23)C(c2c[nH]c3ccc(Br)cc23)C1` (stereo not shown) [Compound 6f, tert-Butyl 3-(5-bromo-1H-indol-3-yl)-4-(2-(5-bromo-1H-indol-3-yl)-2-oxoacetyl) piperazine-1-carboxylate], the minimal inhibitory concentration (MIC) in assay [1], in [2], in assay [3], in assay [4], in [9] and in assay [10] was above 128 µg/mL each time. The MIC in assay [11] and in assay [12] was above 128 µg/mL each time. Besides, the inhibition at 10 µM came out at 39 ± 4% in assay [5] (MRC5, 10^−5 M, read-out: % of cellular growth inhibition); 81 ± 2% in assay [6] (HCT-116, HCT116, 10^−5 M, read-out: % of cellular growth inhibition); 92 ± 3% in assay [7] (10^−5 M, read-out: % of cellular growth inhibition). In addition, the inhibition at 1 µM in [5] (MRC5, 10^−6 M, read-out: % of cellular growth inhibition (converted)) was 0%; in assay [6] (HCT-116, HCT116, 10^−6 M, read-out: % of cellular growth inhibition (converted)), 0%; in assay [7] (10^−6 M, read-out: % of cellular growth inhibition (converted)), 0%. The “CMI, mg/L (Ciprofloxacin concentration, mg/L)” value was 1 (0.25) mg/L in [8] (in the presence of ciprofloxacin 0.25 mg/L (MIC/8)) and 1 (0.5) mg/L in [8] (in the presence of ciprofloxacin 0.5 mg/L (MIC/4)).

As usually defined, the MIC is the smallest concentration in the dilution series that meets the test's criterion for growth inhibition. Broadly, the inhibition is the relative decrease from the control value, in per cent.
